From paper PMC10685318, “Trans-cyclosulfamidate mannose-configured cyclitol allows isoform-dependent inhibition of GH47 α-D-mannosidases through a bump–hole strategy” (Chemical Science, 2023)
Each block holds one molecule with its values, some of them ahead of it.

What was measured:
[1] = target: GH47 model enzyme from Caulobacter K31 strain; details: cited from earlier work
[2] = Chemical stability of the final compounds on storage; assay type: physicochemical; details: storage for a week at room temperature
From the text: 1,6-Cis-manno-cyclosulfate, 4, and 1,6-trans-manno-cyclosulfate, 5, were synthesized from mannose-configured cis-diol and trans-diol, respectively (ESI, Scheme S1 ^†).

[3] = substrate: OC[C@H]1O[C@H](O[C@@H]2C(O)O[C@H](CO)[C@@H](O)[C@@H]2O)[C@@H](O)[C@@H](O)[C@@H]1O; experiment: purified protein, by the assay type; details: other: CkGH47 WT, substrate; pH 7.0
[4] = substrate: OC[C@H]1O[C@H](O[C@@H]2C(O)O[C@H](CO)[C@@H](O)[C@@H]2O)[C@@H](O)[C@@H](O)[C@@H]1O; experiment: purified protein, by the assay type; assay type: biochemical, Caulobacter K31 strain; details: other: CkGH47 L310S, substrate; pH 7.0
Procedure: Fig. 4 Catalytic activity of CkGH47 WT compared to the CkGH47 L310S mutant. […] (C) The Ki, derived from the gradient (1/Ki), for 6 against CkGH47 L310S.
Trans-Cyclosulfamidate Cyclitols Males et al.
2.1 Biochemical and biological methods
To obtain Michaelis-Menten kinetics
Lastly, to achieve an inhibition constant, the
The gradient of the graph, V0/Vi
After taking each time point, the sample was heat denatured at 95 °C for 5 minutes. The reactions were conducted in triplicate and averaged. […]
microplate spectrophotometer (BioTek). The mannose detection kit (Megazyme) was used to detect […]
dehydrogenase, was monitored at 340 nm. The absorbance after hexokinase was added to the mixture […]
2.1.2 Isothermal titration calorimetry
MicroCal ITC200 calorimeter at 25 °C over 20 injections. The experiment was duplicated to obtain a […]
the MicroCal PEAK-ITC analysis software.
2.2 Crystallographic data collection and refinement of CkGH47
3′ and the reverse primer was 5′-[…]-3′. Protein production and purification was followed as described previously.[3]
Reference data in the form of a
Refinement of the model was conducted […]
conformation was conducted using […]. Details of the data collection and refinement statistics […]
Figures of the structure were produced by using CCP4mg.

Molecule: OC[C@H]1NC[C@@H](O)[C@@H](O)[C@@H]1O [DMJ, 1-deoxymannojirimycin]
Kd [1]: 481 nM

stability on storage [2]: compound degradation
Molecule: O=S1(=O)O[C@@H]2[C@@H](O)[C@@H](O)[C@H](O)[C@@H](CO)[C@@H]2O1 [compound 4, 1,6-cis-manno-cyclosulfate]

stability on storage [2]: compound degradation
Molecule: O=S1(=O)O[C@@H]2[C@@H](O)[C@@H](O)[C@H](O)[C@@H](CO)[C@H]2O1 [compound 5, 1,6-trans-manno-cyclosulfate]

Molecule: O=C1N[C@@H]2[C@@H](O)[C@@H](O)[C@H](O)[C@@H](CO)N2C1=O [kifunensine]
Kd [1]: 39 nM

Molecule: OC[C@@H]1[C@@H](O)[C@H](O)[C@H](O)c2nccn21 [mannoimidazole]
Kd [1]: 47 nM

B1: CkGH47 WT (Caulobacter sp. K31) (protein)
chain: AAETTPEDWKALAADVRSEFQWAWQGYVAKAWGKDEINPVSGTSRSFFIEGHDLGLSLVEALDTLWIMGLDAEFQAGVDWVKANLSFDVDGNAQVFETNIRLVGGLLSAHLASGDPVLLAKARDLADRLAKAFEASPHGLPWRYVNLRTGAVSDPETNLAEIGTYLSEFGVLSQLTGERKYFDMAKRAMRHTLDRRSKIGLMAANIHAMTGAFTSRNASIDVYADSFYEYLWDAWALFGDEDCKRWAVECVDAQLAHQAKRYDGRLWFPMVDFETGAVTGTAQSELAAYYAGLLGQVGRKAQGDDYLASFTYLQATFGVIPESIDVTTGQPRRKHTGLRPEYPDACLNLWLIDRDPRYRRLAAIHYREMKATSRAAFGYTALKDITTRPMTQDDNCPGYWWSEQMKYYYLLFSDTPRIDYGQLQLSTEANVLRGFRKV
Km [3]: 65.7 ± 14.2 µM

B2: CkGH47 L310S (Caulobacter sp. K31; L310S) (protein)
chain: AAETTPEDWKALAADVRSEFQWAWQGYVAKAWGKDEINPVSGTSRSFFIEGHDLGLSLVEALDTLWIMGLDAEFQAGVDWVKANLSFDVDGNAQVFETNIRLVGGLLSAHLASGDPVLLAKARDLADRLAKAFEASPHGLPWRYVNLRTGAVSDPETNLAEIGTYLSEFGVLSQLTGERKYFDMAKRAMRHTLDRRSKIGLMAANIHAMTGAFTSRNASIDVYADSFYEYLWDAWALFGDEDCKRWAVECVDAQLAHQAKRYDGRLWFPMVDFETGAVTGTAQSESAAYYAGLLGQVGRKAQGDDYLASFTYLQATFGVIPESIDVTTGQPRRKHTGLRPEYPDACLNLWLIDRDPRYRRLAAIHYREMKATSRAAFGYTALKDITTRPMTQDDNCPGYWWSEQMKYYYLLFSDTPRIDYGQLQLSTEANVLRGFRKV
Km [4]: 402.8 ± 71.3 µM
